In one series the target is T1, enkephalinase (Mus musculus, UniProt Q61391).
T1 construct: striata obtained from ddY male mice; from tissue; host or cells: striata of ddY male mice (washed 20000 g membrane pellet, not purified)
T1 sequence (Q61391 1-750): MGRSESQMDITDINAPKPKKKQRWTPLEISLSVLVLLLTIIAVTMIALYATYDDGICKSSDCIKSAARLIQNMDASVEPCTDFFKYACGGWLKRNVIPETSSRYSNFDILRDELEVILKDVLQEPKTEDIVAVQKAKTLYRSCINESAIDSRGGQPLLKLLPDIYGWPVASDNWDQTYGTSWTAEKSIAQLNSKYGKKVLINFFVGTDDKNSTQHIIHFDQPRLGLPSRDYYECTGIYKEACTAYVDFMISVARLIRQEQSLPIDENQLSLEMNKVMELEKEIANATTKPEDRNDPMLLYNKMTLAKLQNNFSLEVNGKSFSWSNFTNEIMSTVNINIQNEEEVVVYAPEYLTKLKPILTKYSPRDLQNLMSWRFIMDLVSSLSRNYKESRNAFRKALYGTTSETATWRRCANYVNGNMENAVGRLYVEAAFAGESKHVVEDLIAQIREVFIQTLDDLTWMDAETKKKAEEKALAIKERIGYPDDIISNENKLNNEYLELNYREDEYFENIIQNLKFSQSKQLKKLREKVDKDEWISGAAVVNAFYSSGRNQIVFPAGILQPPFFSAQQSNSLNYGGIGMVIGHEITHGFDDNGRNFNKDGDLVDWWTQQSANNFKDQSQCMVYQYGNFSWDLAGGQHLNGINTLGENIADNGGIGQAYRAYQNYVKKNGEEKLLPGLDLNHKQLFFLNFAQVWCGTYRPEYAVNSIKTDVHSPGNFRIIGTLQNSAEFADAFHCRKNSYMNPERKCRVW
The experiment in a line: Inhibitory effect on enkephalinase. The format is biochemical, ddY male mice. The settings on record: substrate Suc-Ala-Ala-Phe-AMC 10^-4 M, 37° C., 60 minutes, mouse striata enzyme. The method, then:
That is, to striata obtained from ddY male mice (weighing 28~30 g), Tris hydrochloric acid buffer solution (referred to "Tris buffer" hereafter) was added. The mixture was homogenised and centrifuged (1000 g×5 minites). The supernatant obtained was further centrifuged (20000 g×1 minutes). The resulting pellet was washed with cold Tris buffer and resuspended in a fresh Tris buffer to use as enzyme source of enkephalinase.
Incubation at 37° C. for 60 minutes was started by adding thereto […] of enzyme solution (×30 dilution of the above enzyme source) and 50 μl of a substrate solution containing succinyl-alanyl-alanyl-phenylalanyl (7-amido-4-methyl)coumarin (i.e. Suc-Ala-Ala-Phe-AMC, final concentration: 10^-4 M) dissolved in 50 mM HEPES/NaOH buffer (pH 7.4). The reaction was stopped by the addition of thiorphan (10^-6 M) and by heating the samples at 95° C. for 15 minutes. […] Blanks values were obtained by the same procedure as above described by using thiorphan (10^-6 M) instead of the test compound.

Series [1] has as its system bradykinin-induced biting-like response. The experiment in a line: Inhibitory effect on bradykinin-induced biting-like response. It is filed as in vivo, male Spraque-Dawley rats. The following applies: for Number of rats which did not show the biting-like response, 30 minutes after p.o. / Number of rats which did not show the biting-like response, 60 minutes after p.o. / Number of rats which did not show the biting-like response, 90 minutes after p.o. / Number of rats which did not show the biting-like response, 120 minutes after p.o.: 100 mg/kg p.o., number of rats 8; for Number of rats which did not show the biting-like response, 10 minutes after i.p. / Number of rats which did not show the biting-like response, 40 minutes after i.p. / Number of rats which did not show the biting-like response, 70 minutes after i.p. / Number of rats which did not show the biting-like response, 100 minutes after i.p.: 10 mg/kg i.p., number of rats 5 (Example 1), 8 (Example 12(5)). The method, then: The experiment was carried out according to the method as described in Journal of Pharmacological Methods, Z, 271 (1982). That is, male Spraque-Dawley rats (weighing 200~300 g) were used. Implantation of the bradykinin (0.63~1.25 μg in 0.5~1.0 μl of distilled water) - filled cannula onto the tooth pulp and the fixation of it on the lower incisor surfaces were carried out under ethyl ether anesthesia. A micro-application of bradykinin onto the tooth pulp produced biting-like response and some other aversive behaviors such as jumping, struggling, rubbing, scratching, escape, head-jerk and body-jerk within 1 minute.
The test compounds suspended in 0.5% carboxymethyl cellulose solution were administered either intraperitoneally or orally. After regular intervals bradykinin was administered.

Series [2] can be described thus: acute toxicity (LD50), intraperitoneal injection in mice. The settings on record: mouse, in vivo, ip.

Structures can show the parent of a compound that is named as a salt.

One may read the IC50 as the concentration that gives 50% inhibition. Low values mean higher potency, high ones lower potency. Molecule `O=C(C[C@H](NC(=O)C(CS)Cc1ccccc1)C(=O)O)Nc1ccc(C(F)(F)F)cc1` (stereo partly drawn) [12(8), N-(3-mercapto-2RS-benzylpropionyl)-β-(4-trifluoromethylanilino)-L-aspartic acid] returned an IC50 against enkephalinase of 21 nM.

Broadly, the LD50 is the dose at which mortality reaches 50%. As to `O=C(O)CC[C@H](NC(=O)[C@@H](CSC1OC(=O)c2ccccc21)Cc1ccccc1)C(=O)Nc1ccccc1` (stereo partly drawn) [Example 16, N-[3-(phthalid-3yl)thio-2S-benzylpropionyl]-α-anilino-L-glutamic acid], in series [1], the “Number of rats which did not show the biting-like response, 30 minutes after p.o.” value was 3; the “Number of rats which did not show the biting-like response, 60 minutes after p.o.” value is listed as 6; the “Number of rats which did not show the biting-like response, 90 minutes after p.o.” value was 2; the “Number of rats which did not show the biting-like response, 120 minutes after p.o.” value amounted to 0. For the same molecule, the LD50 in series [2] was 500 to 1000 mg/kg. For `COC(=O)C[C@H](NC(=O)C(CS)Cc1ccccc1)C(=O)Nc1ccc2c(c1)C(c1ccccc1)=NCCN2C` (stereo partly drawn) [Example 4, N-(3-mercapto-2RS-benzylpropionyl)-L-aspartic acid α-(2,3-dihydro-1-methyl-5-phenyl-1H-1,4-benzodiazepin-7yl)amide β-methyl ester], the IC50 against enkephalinase came out at 150 nM. Regarding `O=C(O)CC[C@H](NC(=O)C(CS)Cc1ccccc1)C(=O)Nc1cnccn1` (stereo partly drawn) [3(9), N-(3-mercapto-2RS-benzylpropionyl)-L-glutamic acid α-(pyrazin-2-yl) amide], the IC50 against enkephalinase was determined as 190 nM. For `O=C(O)CC[C@H](NC(=O)C(CS)Cc1ccccc1)C(=O)Nc1ccc(C(=O)O)cc1` (stereo partly drawn) [3(2), N-(3-mercapto-2RS-benzylpropionyl)-α-(4-carboxyanilino)-L-glutamic acid], the concentration for half-maximal inhibition (IC50) on enkephalinase was 3.6 nM. Turning to `CN(C)c1ccc(NC(=O)C[C@H](NC(=O)C(CS)Cc2ccccc2)C(=O)O)cc1` (stereo partly drawn) [12(7), N-(3-mercapto-2RS-benzylpropionyl)-β-[4-(N,N-dimethylamino)anilino]-L-aspartic acid], the IC50 against enkephalinase is 24 nM. Still for that read-out and setting: with `NS(=O)(=O)c1ccc(NC(=O)[C@H](CCC(=O)O)NC(=O)C(CS)Cc2ccccc2)cc1` (stereo partly drawn) [3(8), N-(3-mercapto-2RS-benzylpropionyl)-α-(4-sulfamoylanilino)-L-glutamic acid] the figure was 23 nM. Still for that read-out and setting: under `O=C(CC[C@H](NC(=O)C(CS)Cc1ccccc1)C(=O)O)Nc1ccccc1` (stereo partly drawn) [Example 11, N-(3-mercapto-2RS-benzylpropionyl)-γ-anilino-L-glutamic acid α-sodium salt] stands 68 nM. On the same count and under the same terms, under `O=C(O)CC[C@H](NC(=O)C(CS)Cc1ccccc1)C(=O)Nc1ccc(Cl)cn1` (stereo partly drawn) [3(4), N-(3-mercapto-2RS-benzylpropionyl)-L-glutamic acid α-(5-chloropyridin-2-yl)amide] stands 35 nM. Turning to `O=C(O)CC[C@H](NC(=O)C(CS)Cc1ccccc1)C(=O)Nc1ccccc1` (stereo partly drawn) [Example 1, N-(3-mercapto-2RS-benzylpropionyl)-α-anilino-L-glutamic acid], on enkephalinase, the midpoint of inhibition, the IC50, lay at 21 nM. Moreover, in series [1], the “Number of rats which did not show the biting-like response, 10 minutes after i.p.” value was 4; the “Number of rats which did not show the biting-like response, 40 minutes after i.p.” value was 4; the “Number of rats which did not show the biting-like response, 70 minutes after i.p.” value stood at 3; the “Number of rats which did not show the biting-like response, 100 minutes after i.p.” value was determined as 1. In the case of `O=C(O)CC[C@H](NC(=O)[C@@H](CSC(=O)C(c1ccccc1)c1ccccc1)Cc1ccccc1)C(=O)Nc1ccccc1` [13(5), N-(3-diphenylacetylthio-2S-benzylpropionyl)-α-anilino-L-glutamic acid], in series [1], the “Number of rats which did not show the biting-like response, 30 minutes after p.o.” value was 1; the “Number of rats which did not show the biting-like response, 60 minutes after p.o.” value worked out at 7; the “Number of rats which did not show the biting-like response, 90 minutes after p.o.” value is 1; the “Number of rats which did not show the biting-like response, 120 minutes after p.o.” value was 1.

As to `O=C(O)CC[C@H](NC(=O)C(CS)CC1CCCCC1)C(=O)Nc1ccccc1` (stereo partly drawn) [1(1), N-(3-mercapto-2RS-cyclohexylmethyl-propionyl)-α-anilino-L-glutamic acid], the IC50 against enkephalinase amounted to 400 nM. Same read-out and setting: under `COc1ccc(NC(=O)[C@H](CC(=O)O)NC(=O)C(CS)Cc2ccccc2)cc1` (single isomer, unassigned) [8(4), N-(3-mercapto-2RS-benzylpropionyl)-α-(4-methoxyanilino)-L-aspartic acid] stands 50 nM; under `COc1ccc(CC(CS)C(=O)N[C@@H](CCC(=O)O)C(=O)Nc2ccccc2)cc1` (stereo partly drawn) [1(2), N-[3-mercapto-2RS-(4-methoxybenzyl)-propionyl]-α-anilino-L-glutamic acid], 51 nM; under `O=C(C[C@H](NC(=O)C(CS)Cc1ccccc1)C(=O)O)Nc1ccccc1` (stereo partly drawn) [Example 12, N-(3-mercapto-2RS-benzylpropionyl)-β-anilino-L-aspartic acid and the corresponding α-sodium salt], 13 nM.

On enkephalinase, `O=C(C[C@H](NC(=O)C(CS)Cc1ccccc1)C(=O)O)Nc1ccc(I)cc1` (stereo partly drawn) [12(5), N-(3-mercapto-2RS-benzylpropionyl)-β-(4-iodoanilino)-L-aspartic acid] yielded an IC50 of 2.8 nM. Also, in series [1], the “Number of rats which did not show the biting-like response, 10 minutes after i.p.” value worked out at 4; the “Number of rats which did not show the biting-like response, 40 minutes after i.p.” value was 2; the “Number of rats which did not show the biting-like response, 70 minutes after i.p.” value amounted to 1; the “Number of rats which did not show the biting-like response, 100 minutes after i.p.” value is recorded as 0.

Molecule `Cc1ccc(CC(CS)C(=O)N[C@@H](CCC(=O)O)C(=O)Nc2ccccc2)cc1` (stereo partly drawn) [1(3), N-[3-mercapto-2RS-(4-methylbenzyl)-propionyl]-α-anilino-L-glutamic acid] had an IC50 against enkephalinase of 71 nM.

The molecule `O=C(O)CC[C@H](NC(=O)C(CS)Cc1ccccc1)C(=O)Nc1nc2ccccc2s1` (stereo partly drawn) [2(10), N-(3-mercapto-2RS-benzylpropionyl)-L-glutamic acid α-(2-benzthiazolyl) amide] showed an IC50 against enkephalinase of 44 nM. The same measure, in the same setting: with `O=C(O)CC[C@H](NC(=O)C(CS)Cc1ccccc1)C(=O)Nc1cccc2ccccc12` (stereo partly drawn) [2(7), N-(3-mercapto-2RS-benzylpropionyl)-L-glutamic acid α-(1-naphthyl)amide] the figure was 350 nM.

The values above are taken from US5317021A, “3-mercapto-glutamic acid derivatives” (ONO Pharmaceutical Co., Ltd., priority 1988, dated 1994).
